Entries after “also recorded” stand apart in the source; their conditions may differ. Square brackets hold non-standard residues; d marks the D form. Peptide text beside a SMILES is read from it. * marks the point of attachment. Phe(F5) = N[C@@H](Cc1c(F)c(F)c(F)c(F)c1F)C(=O)O; Desaminotyrosyl = O=C(CCc1ccc(O)cc1)*; NMeY = CN[C@@H](Cc1ccc(O)cc1)C(=O)O; hArg = N=C(N)NCCCC[C@H](N)C(=O)O; Agmatine = N=C(N)NCCCCN*; Nle = CCCC[C@H](N)C(=O)O; Orn = NCCC[C@H](N)C(=O)O; Abu = CC[C@H](N)C(=O)O; Aoc = NCCCCCCCC(=O)O
How the values were obtained:
[1] = target: T1, GHRH receptor (Homo sapiens, UniProt Q02643); assay: GHRH receptor binding, [His1,125I-Tyr10,Nle27]hGHRH(1-32)NH2 ligand competition, human pituitary membrane homogenates (Table 6); conditions: [His1,125I-Tyr10,Nle27]hGHRH(1-32)NH2, human pituitary membranes
T1 construct: Normal human pituitaries were purchased from the National Hormone and Peptide Program; tissue National Hormone and Peptide Program (A. F. Parlow); host or cells: normal human pituitary, membrane fraction
T1 sequence (Q02643 23-423): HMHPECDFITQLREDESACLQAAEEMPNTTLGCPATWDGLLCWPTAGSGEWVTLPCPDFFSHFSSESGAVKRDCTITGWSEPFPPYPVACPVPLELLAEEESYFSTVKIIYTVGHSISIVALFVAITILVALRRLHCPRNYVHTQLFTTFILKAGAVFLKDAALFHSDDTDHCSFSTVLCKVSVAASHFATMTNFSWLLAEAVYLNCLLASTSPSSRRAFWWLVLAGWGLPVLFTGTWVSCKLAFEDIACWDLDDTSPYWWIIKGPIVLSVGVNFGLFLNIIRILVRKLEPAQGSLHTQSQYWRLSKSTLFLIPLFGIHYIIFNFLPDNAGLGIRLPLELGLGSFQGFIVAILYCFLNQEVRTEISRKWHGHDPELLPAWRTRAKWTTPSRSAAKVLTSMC
Procedure: Receptor binding assay Ligand competition assay with ^125I-labeled [His^1, Nle^27]hGH-RH(1-32)-NH2 was used to determine the binding affinities of the novel hGH-RH agonists to membrane receptors of rat anterior pituitary cells. The methods used have been described in detail (Halmos G, et al. Receptor 3: 87-97, 1993), here by incorporated by reference. Briefly, radioidonated [His^1, Nle^27]hGH-RH(1-32)-NH2 is prepared by the chloramines-T method. […] IC50 is the dose of the tested peptides causing 50% inhibition of specific binding to receptors.
(§1) Preparation of human pituitary membrane fraction and receptor binding of GHRH agonists were performed as previously described, by using a sensitive in vitro ligand competition assay based on binding of ^125I-labeled [His^1, Nle^27]hGHRH(1-32)NH2 to human pituitary membrane homogenates. Normal human pituitaries were purchased from the National Hormone and Peptide Program (A. F. Parlow, Los Angeles, County Harbor—UCLA Medical Center, Torrance, Calif.).

[2] = test system: GH release; assay: In vivo GH release after subcutaneous administration; conditions: rat, s.c.
Procedure: Blood samples are taken from the jugular vein; 5, 15 and 30 minutes or only 15 and 30 minutes after the injection. The blood samples are centrifuged, plasma is removed and the GH level is measured by ELISA. The results are summarized in terms of potency in Table 9.

[3] = target: T1, GHRH receptor; assay: GHRH receptor binding, 125I-labeled JV-1-42 ligand competition, human pituitary membrane homogenates (Table 7); conditions: for IC50: 125I-labeled JV-1-42, human pituitary membranes
Procedure: as §1, with “JV-1-42” for “[His^1, Nle^27]hGHRH(1-32)NH2”, “Harbor-UCLA” for “Harbor—UCLA”

Compound | IC50 [1] [pM] | GH response after subcutaneous administration (in words) [2] | IC50 [3] [pM] | Relative affinity (Binding potency) vs JI-38 ([3]; relative to JI-38 = 1)
CCCC[C@H](NC(=O)[C@@H](NC(=O)[C@H](CC(=O)O)NC(=O)[C@H](CCC(N)=O)NC(=O)[C@H](CC(C)C)NC(=O)[C@H](CC(C)C)NC(=O)[C@H](CCCN)NC(=O)[C@H](CCCNC(=N)N)NC(=O)[C@H](C)NC(=O)[C@H](CO)NC(=O)[C@H](CC(C)C)NC(=O)[C@H](CCC(N)=O)NC(=O)[C@H](CC)NC(=O)[C@H](CC(C)C)NC(=O)[C@@H](NC(=O)[C@H](CCCN)NC(=O)[C@H](CCCNC(=N)N)NC(=O)[C@H](Cc1ccc(O)cc1)NC(=O)[C@H](CO)NC(=O)[C@H](CC(N)=O)NC(=O)[C@@H](NC(=O)[C@H](Cc1ccccc1)NC(=O)[C@@H](NC(=O)[C@H](C)NC(=O)[C@H](CC(=O)O)NC(=O)[C@H](C)NC(=O)CCc1ccc(O)cc1)[C@@H](C)CC)[C@@H](C)O)C(C)C)[C@@H](C)CC)C(=O)N[C@@H](CC(=O)O)C(=O)NCCCCNC(=N)N [JI-34, reference compound] (Desaminotyrosyl-ADAIFTNSYR[Orn]VL[Abu]QLSAR[Orn]LLQDI[Nle]D-Agmatine; N-terminus and C-terminus assumed) | 1370 | – | – | –
CCCC[C@H](NC(=O)[C@@H](NC(=O)[C@H](CC(=O)O)NC(=O)[C@H](CCC(N)=O)NC(=O)[C@H](CC(C)C)NC(=O)[C@H](CC(C)C)NC(=O)[C@H](CCCN)NC(=O)[C@H](CCCNC(=N)N)NC(=O)[C@H](C)NC(=O)[C@H](CO)NC(=O)[C@H](CC(C)C)NC(=O)[C@H](CCC(N)=O)NC(=O)[C@H](CC)NC(=O)[C@H](CC(C)C)NC(=O)[C@@H](NC(=O)[C@H](CCCN)NC(=O)[C@H](CCCNC(=N)N)NC(=O)[C@H](Cc1ccc(O)cc1)NC(=O)[C@H](CO)NC(=O)[C@@H](NC(=O)[C@@H](NC(=O)[C@H](Cc1ccccc1)NC(=O)[C@@H](NC(=O)[C@H](C)NC(=O)[C@H](CC(=O)O)NC(=O)[C@H](C)NC(=O)CCc1ccc(O)cc1)[C@@H](C)CC)[C@@H](C)O)[C@@H](C)O)C(C)C)[C@@H](C)CC)C(=O)N[C@@H](CC(=O)O)C(=O)NCCCCNC(=N)N [JI-36, reference compound] (Desaminotyrosyl-ADAIFTTSYR[Orn]VL[Abu]QLSAR[Orn]LLQDI[Nle]D-Agmatine; N-terminus and C-terminus assumed) | 1820 | – | – | –
CCCC[C@H](NC(=O)[C@@H](NC(=O)[C@H](CC(=O)O)NC(=O)[C@H](CCC(N)=O)NC(=O)[C@H](CC(C)C)NC(=O)[C@H](CC(C)C)NC(=O)[C@H](CCCN)NC(=O)[C@H](CCCNC(=N)N)NC(=O)[C@H](C)NC(=O)[C@H](CO)NC(=O)[C@H](CC(C)C)NC(=O)[C@H](CCC(N)=O)NC(=O)[C@H](CC)NC(=O)[C@H](CC(C)C)NC(=O)[C@@H](NC(=O)[C@H](CCCN)NC(=O)[C@H](CCCNC(=N)N)NC(=O)[C@H](Cc1ccc(O)cc1)NC(=O)[C@H](CO)NC(=O)[C@H](CCC(N)=O)NC(=O)[C@@H](NC(=O)[C@H](Cc1ccccc1)NC(=O)[C@@H](NC(=O)[C@H](C)NC(=O)[C@H](CC(=O)O)NC(=O)[C@@H](C)NC(=O)CCc1ccc(O)cc1)[C@@H](C)CC)[C@@H](C)O)C(C)C)[C@@H](C)CC)C(=O)N[C@@H](CC(=O)O)C(=O)N[C@@H](CCCNC(=N)N)C(=O)NCCCCCCCC(N)=O [Peptide P-21304, [Dat^1, D-Ala^2, Gln^8, Orn^12, Abu^15, Orn^21, Nle^27, Asp^28, Amc^30]hGH-RH(1-30)NH2] (Desaminotyrosyl-[dA]DAIFTQSYR[Orn]VL[Abu]QLSAR[Orn]LLQDI[Nle]DR[Aoc]-NH2) | 80 | – | – | –
CCCC[C@H](NC(=O)[C@@H](NC(=O)[C@H](CC(=O)O)NC(=O)[C@H](CCC(N)=O)NC(=O)[C@H](CC(C)C)NC(=O)[C@H](CC(C)C)NC(=O)[C@H](CCCN)NC(=O)[C@H](CCCNC(=N)N)NC(=O)[C@H](C)NC(=O)[C@H](CO)NC(=O)[C@H](CC(C)C)NC(=O)[C@H](CCC(N)=O)NC(=O)[C@H](CC)NC(=O)[C@H](CC(C)C)NC(=O)[C@@H](NC(=O)[C@H](CCCN)NC(=O)[C@H](CCCNC(=N)N)NC(=O)[C@H](Cc1ccc(O)cc1)NC(=O)[C@H](CO)NC(=O)[C@@H](NC(=O)[C@@H](NC(=O)[C@H](Cc1ccccc1)NC(=O)[C@@H](NC(=O)[C@H](C)NC(=O)[C@H](CC(=O)O)NC(=O)[C@@H](C)NC(=O)CCc1ccc(O)cc1)[C@@H](C)CC)[C@@H](C)O)[C@@H](C)O)C(C)C)[C@@H](C)CC)C(=O)N[C@@H](CC(=O)O)C(=O)N[C@@H](CCCNC(=N)N)C(=O)N[C@@H](CCCCNC(=N)N)C(N)=O [Peptide P-23254, [Dat^1, D-Ala^2, Thr^8, Orn^12, Abu^15, Orn^21, Nle^27, Asp^28, Har^30]hGH-RH(1-30)NH2] (Desaminotyrosyl-[dA]DAIFTTSYR[Orn]VL[Abu]QLSAR[Orn]LLQDI[Nle]DR[hArg]-NH2) | 70 | – | – | –
CCCC[C@H](NC(=O)[C@@H](NC(=O)[C@H](CC(=O)O)NC(=O)[C@H](CCC(N)=O)NC(=O)[C@H](CC(C)C)NC(=O)[C@H](CC(C)C)NC(=O)[C@H](CCCN)NC(=O)[C@H](CCCNC(=N)N)NC(=O)[C@H](C)NC(=O)[C@H](CO)NC(=O)[C@H](CC(C)C)NC(=O)[C@H](CCC(N)=O)NC(=O)[C@H](CC)NC(=O)[C@H](CC(C)C)NC(=O)[C@@H](NC(=O)[C@H](CCCN)NC(=O)[C@H](CCCNC(=N)N)NC(=O)[C@H](Cc1ccc(O)cc1)NC(=O)[C@H](CO)NC(=O)[C@H](CC(N)=O)NC(=O)[C@@H](NC(=O)[C@H](Cc1c(F)c(F)c(F)c(F)c1F)NC(=O)[C@@H](NC(=O)[C@H](C)NC(=O)[C@H](CC(=O)O)NC(=O)[C@@H](C)NC(=O)[C@H](Cc1ccc(O)cc1)NC)[C@@H](C)CC)[C@@H](C)O)C(C)C)[C@@H](C)CC)C(=O)N[C@@H](CC(=O)O)C(=O)N[C@@H](CCCNC(=N)N)C(=O)NC [Peptide P-27404, [N—Me-Tyr^1, D-Ala^2, Fpa5^6, Orn^12, Abu^15, Orn^21, Nle^27, Asp^28]hGH-RH(1-29)NH—CH3] (H-[NMeY][dA]DAI[Phe(F5)]TNSYR[Orn]VL[Abu]QLSAR[Orn]LLQDI[Nle]DR-NHMe) | – | unusually high responses; also recorded: especially greater growth hormone levels than hGH-RH or JI-38 | 870 | 5.00
CCCC[C@H](NC(=O)[C@@H](NC(=O)[C@H](CC(=O)O)NC(=O)[C@H](CCC(N)=O)NC(=O)[C@H](CC(C)C)NC(=O)[C@H](CC(C)C)NC(=O)[C@H](CCCN)NC(=O)[C@H](CCCNC(=N)N)NC(=O)[C@H](C)NC(=O)[C@H](CO)NC(=O)[C@H](CC(C)C)NC(=O)[C@H](CCC(N)=O)NC(=O)[C@H](CC)NC(=O)[C@H](CC(C)C)NC(=O)[C@@H](NC(=O)[C@H](CCCN)NC(=O)[C@H](CCCNC(=N)N)NC(=O)[C@H](Cc1ccc(O)cc1)NC(=O)[C@H](CO)NC(=O)[C@H](CC(N)=O)NC(=O)[C@@H](NC(=O)[C@H](Cc1ccccc1)NC(=O)[C@@H](NC(=O)[C@H](C)NC(=O)[C@H](CC(=O)O)NC(=O)[C@@H](C)NC(=O)[C@H](Cc1ccc(O)cc1)NC)[C@@H](C)CC)[C@@H](C)O)C(C)C)[C@@H](C)CC)C(=O)N[C@@H](CC(=O)O)C(=O)N[C@@H](CCCNC(=N)N)C(=O)NC [Peptide P-27409, [N—Me-Tyr^1, D-Ala^2, Orn^12, Abu^15, Orn^21, Nle^27, Asp^28]hGH-RH(1-29)NH—CH3] (H-[NMeY][dA]DAIFTNSYR[Orn]VL[Abu]QLSAR[Orn]LLQDI[Nle]DR-NHMe) | – | unusually high responses; also recorded: especially greater growth hormone levels than hGH-RH or JI-38 | 1060 | –

From patent US9079974B2, “GH-RH analogs with potent agonistic effects” (The University of Miami, priority 2011, dated 2015)
